The structures appear in SMILES notation. Converted amounts (≈) assume the structure as drawn. Where two headings read alike, the source gives them in different places.

This is an account of results in patent US20150299125A1, “PRODRUG BIPYRIDYLAMINOPYRIDINES AS SYK INHIBITORS” (MERCK SHARP & DOHME CORP., priority 2012, published 2015).

The nature of one data set: Blood stability assay. The note with it: whole blood; human blood, 37° C. Type of data set: in vitro ADME. How it is done:
The likely stability of prodrugs in the blood can be estimated by incubating a prodrug with blood. A prodrug stock solution was prepared at 10 mM in DMSO and working solutions (100 μM) containing the prodrug were prepared by diluting a suitable amount of the stock solution with acetonitrile/water (50/50). 5 μL of the working solution were added to 495 μL of pre-warmed blood (at 37° C.). After vortexing and mixing, 50 μL of the spiked blood sample were taken for the 0 time point and transferred to another vial containing 200 μL of quenching solution (labetalol, alprazolam and diclofenac in 100% acetonitrile) ensuring that the vial is lidded to prevent evaporation and kept on ice. While keeping the spiked blood sample at 37° C. at the following timepoints (0.25, 0.5, 1, 2 and 3 h) 5 additional aliquots (50 μL) were sampled and mixed with the quenching solution. At the end of the experiment the quenched samples were vortexed for 2 minutes and centrifuged for 10 minutes at 4000 rpm. The supernatant (100 μL) was then transferred and collected into a new 96-well plate and injected into the LC-MS/MS for analysis. For each test compound, the area ratios at each time point to the 0 hour area ratio were compared and converted to a percentage remaining. The percentage remaining were then plotted against time (h) and half life generated using the following equation t½=0.693/kel. Where kel is the elimination rate constant which is determined from the concentration versus time curve by linear regression at the terminal phase of the semi-logarithmic plot.

The target in data set [1] is T1, recombinant human GST-Syk (Homo sapiens, UniProt P43405).
T1 construct: purchased Carna Biosciences 08-176
As to the kind of experiment: Homogeneous Time-Resolved Fluorescence (HTRF) assay for the recombinant human Syk enzyme. It is filed as biochemical. The note with it: recombinant human GST-Syk 5 pM, ATP 25 μM, read-out: IC50. Put shortly: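 Recombinant GST-hSyk phosphorylates a biotinylated peptide for 45 min at room temperature. Quenched with EDTA buffer containing 2 nM Eu-anti-phosphotyrosine antibody and 70 nM SA-APC; HTRF read after 30 min.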

Data set [2] can be described thus: Conversion of prodrug to parent in in vitro biorelevant gastrointestinal tract media. It is filed as in vitro ADME. Conditions: 37° C.; for Conversion in SGF, time: simulated gastric fluid. How it is done:
Conversion of Prodrug to Parent in In Vitro Biorelevant Gastrointestinal Tract Media: The likely stability of prodrugs in the gastrointestinal tract can be estimated by incubating a prodrug in simulated gastric and intestinal fluids; compounds were measured for stability in simulated gastric fluid (SGF), fasted state simulated intestinal fluid (FaSSIF), and fasted state simulated intestinal fluid plus pancreatin (FaSSIF+pancreatin). Prodrug stock solutions were made by diluting 2 mg of compound in 200 μL DMSO. A 10 mg/mL Pancreatin in FaSSIF stock solution was made by dissolving 10 mg Pancreatin in 1 mL FaSSIF. Samples were prepared by diluting 10 μL of compound stock solution into 990 μL of biorelevant media (990 μL SGF, 990 μL FaSSIF, or 940 μL FaSSIF plus 50 μL Pancreatin stock) in a 2 mL HPLC vial and vortexing the mixture for a few seconds. The samples were incubated at 37° C. and aliquots were removed for up to 24 hours and injected directly on an HPLC to determine the conversion of prodrug to active drug. In the case of compound precipitation upon sample preparation, an individual sample was prepared for each desired time point and the entire sample was diluted with a known volume of acetonitrile/water (50/50) to ensure compound dissolution before HPLC analysis.

The nature of data set [3]: Conversion of prodrug to parent in liver homogenate. The note with it: prodrug 1 μM, liver S9 1 mg protein/mL, 37° C., pH 7.4, 2 h. It is filed as in vitro ADME. How it is done: Conversion of Prodrug to Parent in Liver Homogenate:
(§1) The likely stability of prodrugs in the liver can be estimated by incubating a prodrug with liver homogenate. Incubations of prodrugs (1 μM) with liver S9 (1 mg protein/mL) were carried out at 37° C. in a phosphate buffer, pH 7.4. Control incubations contained BSA (1.1 mg/mL) instead of liver S9 microsomes. Aliquots were removed at 0, 5, 15, 30, 60 and 120 min, treated with 4 volumes of acetonitrile containing 2% formic acid and an internal standard, and centrifuged. The supernatants were analyzed by LC-MS/MS for prodrug disappearance and appearance of active drug. The half-life of the prodrug was calculated from the % prodrug remaining at different time points calculated from on the peak area ratio relative to t=0. The amount of active drug generated at the different time points was determined using a standard curve.

Data set [4] is described as follows: Conversion of prodrug to parent in intestine homogenate. The note with it: prodrug 1 μM, intestine S9 1 mg protein/mL, 37° C., pH 7.4, 2 h. It is filed as in vitro ADME. The protocol: Conversion of Prodrug to Parent in Intestine Homogenate:
as §1, with “intestine” for “liver”

Data set [5] can be described thus: Solubility in biorelevant fasted state simulated intestinal fluid (FaSSIF). Type of data set: physicochemical. Conditions: 25 °C, fassif, kinetic from dmso stock. Summed up: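 Compound from 10 mM DMSO stock diluted into FaSSIF (maximum solubility approximately 200 μM), equilibrated, then filtered by centrifugation through a 0.45 μm polypropylene membrane. Filtrate and a 100 μM standard analysed by HPLC/DAD; solubility = (sample peak area/standard peak area) × standard concentration.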

The conditions of data set [6]: phase II clinical trial for allergic rhinitis; cited from earlier work.
For data set [7] the following is noted: dosed intranasally, phase I/II study, allergic rhinitis; cited from earlier work.

Broadly, the half-life is the time in which the quantity being followed falls by half. A high value points to slow decline. A word on the IC50: it is the concentration needed to halve the response being measured. Regarding `Cc1cc(Nc2cc(C(F)F)ccn2)nc(-c2ccc([C@](C)(O)[C@H]3CC[C@H](C(=O)OCCS(C)(=O)=O)CC3)nc2)c1` [Example 1-8, 2-(methylsulfonyl)ethyl trans-4-[(1R)-1-(6-{[4-(difluoromethyl)pyridin-2-yl]amino}-4-methyl-2,3′-bipyridin-6′-yl)-1-hydroxyethyl] cyclohexanecarboxylate], the half-life at 1 μM in the data set “Blood stability assay” was determined as 22 min. In addition, in data set [1], the IC50 stood at 4 nM.

Take `CCOCCOCCOC(=O)OCOC(=O)[C@H]1CC[C@H]([C@@](C)(O)c2ccc(-c3cc(C)cc(Nc4cc(C(F)F)ccn4)n3)cn2)CC1` [Example 2-2, 3-oxo-2,4,7,10-tetraoxadodec-1-yl trans-4-[(1R)-1-(6-{[4-(difluoromethyl)pyridin-2-yl]amino}-4-methyl-2,3′-bipyridin-6′-yl)-1-hydroxyethyl]cyclo hexanecarboxylate]: the “Conversion in FaSSIF + Pancreatin, time” value in data set [2] (3 h) is reported as 100%, 3 h. For the same compound, the “Conversion in FaSSIF, time” value in data set [2] (5 h) was 0%, 5 h. For the same compound, the “Conversion in SGF, time” value in data set [2] (5 h) is on record as 0%, 5 h. Also, the half-life at 1 μM in the data set “Blood stability assay” was 7 min. In addition, the “Prodrug concentration at 2 h” value in data set [3] and in data set [4] was 0 µM throughout. The IC50 in data set [1] was determined as 174 nM.

In the case of `CCOCCOCCOC(=O)OC(C)OC(=O)[C@H]1CC[C@H]([C@@](C)(O)c2ccc(-c3cc(C)cc(Nc4cc(C(F)F)ccn4)n3)cn2)CC1` (stereo partly drawn) [Example 2-14, 1-methyl-3-oxo-2,4,7,10-tetraoxadodec-1-yl trans-4-[(1R)-1-(6-{[4-(difluoromethyl)pyridin-2-yl]amino}-4-methyl-2,3′-bipyridin-6′-yl)-1-hydroxyethyl]cyclo hexanecarboxylate], the half-life at 1 μM in the data set “Blood stability assay” was 199 min. For the same compound, in data set [1], the IC50 amounted to 30.4 nM.

The term solubility denotes how much of the substance goes into solution per volume. Regarding `Cc1cc(Nc2cc(C(F)F)ccn2)nc(-c2ccc([C@](C)(O)[C@H]3CC[C@H](C(=O)OCOC(=O)CC(C)(C)O)CC3)nc2)c1` [Example 3-4, [(3-hydroxy-3-methylbutanoyl)oxy] methyl trans-4-[(1R)-1-(6-{[4-(difluoromethyl)pyridin-2-yl]amino}-4-methyl-2,3′-bipyridin-6′-yl)-1-hydroxyethyl]cyclohexane carboxylate], the solubility in data set [5] (Solubility) was 59 µM (≈ 36.1 µg/mL). Besides, the half-life at 1 μM in the data set “Blood stability assay” is 14 min. Moreover, in data set [1], the IC50 turned out to be 1.8 nM.

Compound `COCCOCCOCC(=O)OCOC(=O)[C@H]1CC[C@H]([C@@](C)(O)c2ccc(-c3cc(C)cc(Nc4cc(C(F)F)ccn4)n3)cn2)CC1` [Example 3-29, 3-oxo-2,5,8,11-tetraoxadodec-1-yl trans-4-[(1R)-1-(6-{[4-(difluoromethyl)pyridin-2-yl]amino}-4-methyl-2,3′-bipyridin-6′-yl)-1-hydroxyethyl]cyclohexane carboxylate] registered a solubility in data set [5] (Solubility) of 41 µM (≈ 27.6 µg/mL). The half-life at 1 μM in “Blood stability assay” was 29 min. Besides, the IC50 in data set [1] worked out at 1.2 nM.

Turning to `COCCN(C)C(=O)OCOC(=O)[C@H]1CC[C@H]([C@@](C)(O)c2ccc(-c3cc(C)cc(Nc4cc(C(F)F)ccn4)n3)cn2)CC1` [Example 4-2, {[(2-methoxyethyl)(methyl)carbamoyl]oxy}methyl trans-4-[(1R)-1-(6-{[4-(difluoromethyl)pyridin-2-yl]amino}-4-methyl-2,3′-bipyridin-6′-yl)-1-hydroxyethyl]cyclohexanecarboxylate], the half-life at 1 μM in the data set “Blood stability assay” was determined as 16 min. The half-maximal inhibitory concentration (IC50) in data set [1] was 9.1 nM.

Consider `Cc1cc(Nc2cc(C(F)F)ccn2)nc(-c2ccc([C@](C)(O)[C@H]3CC[C@H](C(=O)OC[N+]4(C)CCOCC4)CC3)nc2)c1.[I-]` [Example 5-1, 4-{[({trans-4-[(1R)-1-(6-{[4-(Difluoromethyl)pyridin-2-yl]amino}-4-methyl-2,3′-bipyridin-6′-yl)-1-hydroxyethyl]cyclohexyl}carbonyl)oxy]methyl}-4-methylmorpholin-4-ium], for which the solubility in data set [5] (FaSSIF (fasted state simulated intestinal fluid), FaSSIF, equilibrated overnight at 25° C., maximum solubility approximately 200 μM, read-out: Solubility) is 200 µM. Further, in data set [2] (3 h), the “Conversion in FaSSIF + Pancreatin, time” value is 45%, 3 h and the “Conversion in FaSSIF, time” value is reported as 12%, 3 h. The “Conversion in SGF, time” value in data set [2] (5 h) is listed as 0%, 5 h. In addition, the half-life at 1 μM in the data set “Blood stability assay” was found to be 15 min. The “Prodrug concentration at 2 h” value in data set [3] stood at 0.314 µM. The “Prodrug concentration at 2 h” value in data set [4] came to 0.321 µM. In addition, the IC50 in data set [1] is 3.6 nM.

`Cc1cc(Nc2cc(C(F)F)ccn2)nc(-c2ccc([C@](C)(O)[C@H]3CC[C@H](C(=O)OCn4cc[n+](C)c4)CC3)nc2)c1` [Example 6-1, 1-{[({Trans-4-[(1R)-1-(6-{[4-(Difluoromethyl)pyridin-2-yl]amino}-4-methyl-2,3′-bipyridin-6′-yl)-1-hydroxyethyl]cyclohexyl}carbonyl)oxy]methyl}-3-methyl-1H-imidazol-3-ium] showed a solubility in data set [5] (Solubility) of 140 µM. For the same compound, the half-life at 1 μM in “Blood stability assay” is 24 min. Moreover, the “Prodrug concentration at 2 h” value in data set [3] came to 0.622 µM; in data set [4], 0.844 µM. In data set [1], the IC50 was 0.8 nM.

Consider `Cc1cc(Nc2cc(C(F)F)ccn2)nc(-c2ccc([C@](C)(O)[C@H]3CC[C@H](C(=O)OCCOP(=O)(O)O)CC3)nc2)c1` [Example 8-2, 2-(phosphonooxy)ethyl trans-4-[(1R)-1-(6-{[4-(difluoromethyl)pyridin-2-yl]amino}-4-methyl-2,3′-bipyridin-6′-yl)-1-hydroxyethyl]cyclohexane-carboxylate], for which, in data set [5] (Solubility), the concentration in solution (solubility) came to 161 µM (≈ 97.7 µg/mL). Further, the “Conversion in FaSSIF + Pancreatin, time” value in data set [2] (3 h) is on record as 20%, 3 h. In data set [2] (5 h), the “Conversion in FaSSIF, time” value is recorded as 0%, 5 h and the “Conversion in SGF, time” value was 0%, 5 h. Further, the “Prodrug concentration at 2 h” value in data set [3] worked out at 0.434 µM. Besides, the “Prodrug concentration at 2 h” value in data set [4] turned out to be 0.249 µM. The IC50 in data set [1] is under 0.5 nM.

In the case of `Oc1cccc(Nc2ncc(F)c(Nc3cccc(O)c3)n2)c1` [Example R112], the efficacy versus placebo entry in data set [6] is reported as “lack of efficacy versus placebo”. In addition, in data set [7], the PGD2 entry is “statistically significant decrease” and the clinical safety entry was “safe across a range of indicators”.
